Reference: patent US10065990B2, “Cyclic peptide compound, and preparation method, pharmaceutical composition and use thereof” (HANGZHOU GUANYU BIO-MEDICAL CO., LTD, priority 2013, dated 2018)
Read-outs that look alike come from different tables or passages of the source.

Legend:
Experiment in all cases: MTT cancer cell growth inhibition
Type in all cases: cell-based
[1] = system: Bel-7402 (human hepatoma cells); conditions: Homo sapiens, Bel-7402, 72 h, MTT, 72 hours incubation, Bel-7402 cells; read-out: GI50 Bel-7402
How it was run: (§1)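 Using a 72 h MTT format, triplicate wells of 1500 cells received compound concentrations from 10^−5 to 10^−10 M. Formazan was read at 570 nm after DMSO dissolution, and GI50 was derived from viability.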

[2] = system: PANC-1 (Pac-1, human pancreatic cancer cells); conditions: Homo sapiens, PANC-1, 72 h, MTT
How it was run: as §1

[3] = system: DU145 (human prostate cancer cells); conditions: Homo sapiens, DU-145, 72 h, MTT
How it was run: as §1

[4] = system: lncap (prostate cancer cells); conditions: Homo sapiens, LNCaP, 72 h, MTT
How it was run: as §1

[5] = system: KBM-5 (human chronic myelogenous leukemia); conditions: Homo sapiens, KBM5, 72 h, MTT, 72 hours incubation, KBM-5 cells; read-out: GI50 KBM-5
How it was run: as §1

[6] = system: K562 (human leukemia cells); conditions: Homo sapiens, K562, 72 h, MTT, 72 hours incubation, K562 cells; read-out: GI50 K562
How it was run: as §1

[7] = system: Hela (human cervical cancer cells); conditions: Homo sapiens, HeLa, 72 h, MTT
How it was run: as §1

[8] = system: BGC-823 (human gastric cancer cells); conditions: Homo sapiens, BGC-823, 72 h, MTT
How it was run: as §1

[9] = system: Huh-7 (human hepatoma cells); conditions: Homo sapiens, Huh-7, 72 h, MTT, 72 hours incubation, Huh-7 cells; read-out: GI50 Huh-7
How it was run: as §1

[10] = system: SGC-7901 (human gastric cancer cells); conditions: Homo sapiens, SGC-7901, 72 h, MTT, 72 hours incubation, SGC-7901 cells; read-out: GI50 SGC-7901
How it was run: as §1

[11] = system: MDA-MB-231 (breast cancer cells); conditions: Homo sapiens, MDA-MB-231, 72 h, read-out: GI50 MDA-MB-231, MTT, 72 hours incubation, MDA-MB-231 cells
How it was run: as §1

[12] = system: HT1080 (human fibrosarcoma cells); conditions: Homo sapiens, HT-1080, 72 h, MTT
How it was run: as §1

[13] = system: HCC827 (human non-small cell lung cancer cells); conditions: Homo sapiens, HCC827, 72 h, MTT, 72 hours incubation, HCC827 cells; read-out: GI50 HCC827
How it was run: as §1

[14] = system: U937 (human leukemia cells); conditions: Homo sapiens, U-937, 72 h, MTT
How it was run: as §1

[15] = system: N-87 (human gastric cancer cells); conditions: Homo sapiens, 72 h, MTT, 72 hours incubation, N-87 cells; read-out: GI50 N-87
How it was run: as §1

[16] = 72 hours incubation, read-out: GI50 PAN
[17] = 72 hours incubation, read-out: GI50 Hela
[18] = 72 hours incubation, read-out: GI50 HT1
[19] = 72 hours incubation, read-out: GI50 Du1
[20] = 72 hours incubation, read-out: GI50 lnca
[21] = 72 hours incubation, read-out: GI50 BG
[22] = 72 hours incubation, read-out: GI50 U93

Row | GI50 [1] | GI50 [2, 16] | GI50 [5] | GI50 [6] | GI50 [7, 17] | GI50 [9] | GI50 [10] | GI50 [11] | GI50 [12, 18] | GI50 [13] | GI50 [15] | GI50 [3, 19] | GI50 [4, 20] | GI50 [8, 21] | GI50 [14, 22] | also measured | Structure (SMILES)
1 | 83 nM | 60 nM | 44 nM | 83 nM | 50 nM | 53 nM | 31 nM | 97 nM | 40 nM | 53 nM | 35 nM | – | – | – | – | GI50 ([2]; 72 hours, present invention, read-out: GI50 PANC-1, a): 60 nM; GI50 ([3]; 72 hours, present invention, read-out: GI50 Du145, a): 2 nM; GI50 ([4]; 72 hours, present invention, read-out: GI50 lncap, a): 9 nM; GI50 ([7]; 72 hours, present invention, read-out: GI50 Hela, a): 50 nM; GI50 ([8]; 72 hours, present invention, read-out: GI50 BGC823, a): 7 nM; GI50 ([12]; 72 hours, present invention, read-out: GI50 HT1080, a): 40 nM; GI50 ([14]; 72 hours, present invention, read-out: GI50 U937, a): 1 nM | C/C=C1\NC(=O)c2cccc(n2)CNC(=O)C[C@@H](/C=C/CCSC(=O)CCCCCCC)OC(=O)[C@H](CC)NC1=O [Compound 9]
2 | 43 nM | 40 nM | 37 nM | 39 nM | 30 nM | 24 nM | 49 nM | 24 nM | 40 nM | 43 nM | 37 nM | 30 nM | 20 nM | 30 nM | 20 nM | – | C/C=C1\NC(=O)c2ccc(F)c(n2)CNC(=O)C[C@@H](/C=C/CCSC(C)=O)OC(=O)[C@H](CCCCN)NC1=O [Example 74]
3 | 86 nM | 10100 nM | 61 nM | 24 nM | 10 nM | 72 nM | 63 nM | 96 nM | 980 nM | 52 nM | 62 nM | 1980 nM | 5100 nM | 1100 nM | 20200 nM | – | CC(=O)SCC/C=C/[C@@H]1CC(=O)NCc2cccc(n2)C(=O)NC(=C(C)C)C(=O)N[C@@H](C(C)C)C(=O)O1 [Compound 20]
4 | 95 nM | 42100 nM | 54 nM | 35 nM | 370 nM | 65 nM | 42 nM | 78 nM | 10800 nM | 59 nM | 44 nM | 420 nM | 10300 nM | 53100 nM | 11300 nM | – | C/C=C1\NC(=O)c2cccc(n2)CNC(=O)C[C@@H](/C=C/CCSC(C)=O)OC(=O)[C@H](Cc2ccc(O)cc2)NC1=O [Compound 18]
5 | 67 nM | 60 nM | 81 nM | 34 nM | 80 nM | 38 nM | 38 nM | 38 nM | 60 nM | 67 nM | 75 nM | 30 nM | 30 nM | 70 nM | 50 nM | – | C/C=C1\NC(=O)c2cc(F)cc(n2)CNC(=O)C[C@@H](/C=C/CCSC(=O)CCCCCCC)OC(=O)[C@H](C)NC1=O [Compound 61]
6 | 86 nM | 2580 nM | 95 nM | 26 nM | 15700 nM | 73 nM | 53 nM | 91 nM | 38700 nM | 51 nM | 29 nM | 480 nM | 400 nM | 1220 nM | 1120 nM | – | C/C=C1\NC(=O)c2cccc(n2)CNC(=O)C[C@@H](/C=C/CCSC(C)=O)OC(=O)[C@H](CCCCN)NC1=O [Compound 15]
